For assay [1], the target named is E197 Perth NA (B/Perth/211/2001 D197E mutant neuraminidase) (Influenza B virus, UniProt Q3S340, D197E). It is filed as biochemical, influenza B virus B/Perth/211/2001. As to conditions: read-out: Km for MUNANA.
For assay [2], the target named is N197 Yamagata NA (B/Yamagata/186/05 D197N mutant neuraminidase) (Influenza B virus, UniProt Q38G88, D197N). It is filed as biochemical, influenza B virus B/Yamagata/186/05. As to conditions: read-out: Km for MUNANA.
In assay [3] the test system is mutant NAs (B/Perth E197 and B/Yamagata N197). In kind it is biochemical, influenza B virus.

Consider three compounds from article PMC2932999 (Journal of Medicinal Chemistry, 2010).

As for `CC(=O)N[C@H]1[C@H]([C@H](O)[C@H](O)CO)OC(Oc2ccc3c(C)cc(=O)oc3c2)(C(=O)O)C[C@@H]1O` (stereo partly shown) [MUNANA, 4-methylumbelliferyl-N-acetylneuraminic acid], the Km was 12.1 ± 3.7 µM in assay [1] and 18.8 ± 4.5 µM in assay [2]. Regarding `O=C(O)C1(F)O[C@H]([C@H](O)[C@H](O)CO)[C@H](O)[C@@H](O)C1F` (stereo partly drawn) [compound 4, 2,3-difluoro-2-keto-3-deoxy-D-glycero-D-galactononulosonic acid], in assay [3], the “resistance of mutant NAs compared to D197 wild type NA” value is recorded as “no resistance”.

For `CCC(CC)[C@H](NC(C)=O)[C@@H]1[C@H](O)[C@@H](C(=O)O)C[C@H]1NC(=N)N` [compound 3, peramivir], the “slow binding of inhibitor” value in assay [3] is “loss of slow binding”.
